Assay results from ChEMBL document CHEMBL4382293, “Triazolopyrimidines and Imidazopyridines: Structure-Activity Relationships and in Vivo Efficacy for Trypanosomiasis” (ACS Med Chem Lett, 2019).

Columns and labels:
Type in all cases: ADME, organism-based
[1] = AUC in Swiss Webster mouse at 50 mg/kg, po administered as single dose via gavage by LC/MS analysis; settings: in vivo
[2] = Ratio of drug level in brain to plasma in Swiss Webster mouse at 5 mg/kg, ip measured after 1 hr by LC/MS analysis; settings: for Kp at 1 h: Swiss Webster, brain/plasma, read-out: BPR
[3] = Cmax in Swiss Webster mouse at 50 mg/kg, po administered as single dose via gavage by LC/MS analysis; set-up: dose 50 mg/kg, route oral; settings: in vivo
[4] = Volume of distribution at steady state in Swiss Webster mouse at […], iv administered as single dose by LC/MS analysis; settings: in vivo, read-out: Vdss
[5] = Oral bioavailability in Swiss Webster mouse at 50 mg/kg administered as single dose via gavage by LC/MS analysis; settings: in vivo
[6] = Drug level in Swiss Webster mouse brain at 5 mg/kg, ip measured after 1 hr by LC/MS analysis; settings: read-out: Drug uptake
[7] = Drug level in Swiss Webster mouse plasma at 5 mg/kg, ip measured after 1 hr by LC/MS analysis

With `O=C(Nc1ccc(F)c(-c2nc3cc(-c4ccccc4)cnc3[nH]2)c1)N1CCCC1` the AUC [1] was 20.7 µM·h and the BPR ([2]; brain, 1 h) was 0.04.
Work on `O=C(Nc1ccc(F)c(-c2nc3ncc(-c4ccc(F)cc4)cc3[nH]2)c1)N1CCCC1` yielded an AUC [1] of 24.3 µM·h, a Cmax [3] of 6.27 µM and a Kp at 1 h [2] of 0.04.
With `O=C(Nc1ccc(F)c(-c2nc3ncc(-c4ccc(O)cc4)cc3[nH]2)c1)N1CCCC1` the AUC [1] was 0.328 µM·h and the Cmax [3] was 0.13 µM.
`O=C(Nc1ccc(F)c(-c2nc3ncc(-c4ccccn4)cn3n2)c1)N1CCC(F)(F)C1` showed an AUC [1] of 262 µM·h, a Vd [4] of 0.7 to 1.1 L/kg and a Cmax [3] of 31.1 µM. It also gave a Kp at 1 h [2] of 0.02 and a bioavailability [5] of 70%.
Work on `O=C(Nc1ccc(F)c(-c2nc3ncc(-c4cncc(F)c4)cc3[nH]2)c1)N1CCCC1` yielded an AUC [1] of 3.7 µM·h and a Cmax [3] of 1.07 µM.
In the case of `O=C(Nc1ccc(F)c(-c2nc3ncc(-c4ccc(F)cc4F)cc3[nH]2)c1)N1CCCC1`, the AUC [1] was 35.7 µM·h, the Cmax [3] was 9.5 µM and the Kp at 1 h [2] was 0.01.
For `O=C(Nc1ccc(F)c(-c2nc3ncc(-c4cccc(F)c4F)cc3[nH]2)c1)N1CCCC1`, the AUC [1] was 10.8 µM·h and the Cmax [3] was 1.83 µM.
In the case of `O=C(Nc1ccc(F)c(-c2nc3ncc(-c4cccc(F)c4)cc3[nH]2)c1)N1CCCC1`, the AUC [1] was 35.8 µM·h and the Cmax [3] was 7 µM.
In the case of `O=C(Nc1ccc(F)c(-c2nc3ncc(-c4cccnc4F)cc3[nH]2)c1)N1CCCC1`, the AUC [1] was 73.5 µM·h and the Cmax [3] was 25.6 µM.
Compound `Cc1nc(C)c(C(=O)Nc2ccc(F)c(-c3nc4ncc(-c5ccccc5Cl)cn4n3)c2)o1` has an AUC [1] of 667 µM·h, a Vd [4] of 0.7 to 1.1 L/kg and a concentration at 1 h [6] of 1.9 µM. It also gave a Cmax [3] of 39.3 µM, a concentration at 1 h [7] of 8.8 µM and a Kp at 1 h [2] of 0.23. The bioavailability [5] was 70%.
`O=C(Nc1ccc(F)c(-c2nc3ncc(-c4ccccc4F)cc3[nH]2)c1)N1CCCC1` gave an AUC [1] of 11.6 µM·h, a Cmax [3] of 2.23 µM and a Kp at 1 h [2] of 0.02.
For `O=C(Nc1ccc(F)c(-c2nc3ncc(-c4cc(F)cc(F)c4)cc3[nH]2)c1)N1CCCC1`, the AUC [1] was 21.5 µM·h and the Cmax [3] was 4.8 µM.
Compound `Cc1nc(C)c(C(=O)Nc2ccc(F)c(-c3nc4ncc(-c5ccccn5)cn4n3)c2)o1` has an AUC [1] of 765 µM·h, a Cmax [3] of 54.4 µM and a Kp at 1 h [2] of 0.12.
`O=C(Nc1ccc(F)c(-c2nc3ncc(-c4cc(F)ccc4F)cc3[nH]2)c1)N1CCCC1` showed an AUC [1] of 12.8 µM·h and a Cmax [3] of 2.8 µM.
In the case of `O=C(Nc1ccc(F)c(-c2nc3ncc(-c4ccc(F)c(F)c4)cc3[nH]2)c1)N1CCCC1`, the AUC [1] was 27.5 µM·h, the Cmax [3] was 6.67 µM and the Kp at 1 h [2] was 0.02.
`O=C(Nc1ccc(F)c(-c2nc3ncc(C(F)(F)F)cc3[nH]2)c1)N1CCCC1` gave an AUC [1] of 1.24 µM·h, a Cmax [3] of 1.08 µM and a Kp at 1 h [2] of 0.08.
